In brackets after ≈: the same amount, converted by molar mass. Peptide text beside a SMILES is read from it.

Data on 1 compound can be found in patent US10810329B2, “In silico design of peptides equilibrated in a lipid bilayer with partition free energies indicating probability of antimicrobial activity” (priority 2015, dated 2020).

One series relates to E. coli ATCC 25922. It counts as cell-based, Escherichia coli. Here is the method:
(§1) MIC: Minimal Inhibitory Concentration of AMPs in MH Medium Against E. coli ATCC 25922 Minimal inhibitory concentration (MIC) represents for the lowest concentration of peptide at which the AMP can still kill 90% of the bacteria. All MIC tests for WLK peptide series SEQ ID NO:1-13 were measured against Escherichia coli strain (ATCC 25922) in triplicate. Peptide concentration was determined by UV spectrophotometer (Ultrospec 1100 pro from Amersham Biosciences) at 280 nm with proper extinction coefficient. (Gill S. C. & Von Hippel P. H., Analytical biochemistry 1989, 182(2), 319-326). All of the samples were prepared from a stock solution containing peptides of concentrations 5, 2.5, 1.25, 0.625, 0.313, 0.156 and 0.078 mg/ml. Bacteria culture in the middle of logarithmic growth at a concentration of 5×10^5 colony-formation unit (CFU) and protein solution at the aforementioned concentrations were uniformly mixed in a 96-well culture plate (each well contains 1 microliter protein solution and 99 microliter of bacteria culture). After growing the culture at 37° C. for 16 hours, how bacterial growth was inhibited was measured by Thermo Max (Molecular Devices) at the wavelength of 600 nm. The MIC values were determined by triplicates of the above experiments.

The subject of the next series is human red blood cells. The series is classed as cell-based. The method, then:
Hemolysis Activity Test Hemolytic activity was determined by measuring hemolysis of human red blood cells. Fresh red blood cells and PBS buffer solution (pH 7.4) was mixed uniformly and centrifugated by relative centrigugal force (RCF) 800 g rpm for 10 minutes, washed and then diluted by the PBS buffer solution to 10% concentration by volume (v/v). All the tested peptides were prepared with different concentrations (800, 400, 200, 100, 50, 25, 12.5, 6.25, 3.13, 1.56 μg/ml) and then mixed with PBS buffer in 1:1 ratio (100 μL:100 μL) by volume. In 1:1 ratio (v/v), the red blood cell solution was mixed with a PBS buffer, with or without 2% Triton X-100, respectively as the positive and negative controls. All samples to be tested were settled at 37° C. environment for 1 hour. Next, the specimen was centrifuged under RCF 800 g for 10 minutes and the absorbance of its supernatant was measured at a wavelength of 450 nm. The hemolytic activity would be measured according to the following formula: “% hemolysis=[Asample−APBS]/[ATritonX100−APBS]”

For series [1], the system named is Escherichia coli strain (ATCC 25922). The series is classed as cell-based. Here is the method:
as §1, with “Minimal” for “MIC: Minimal Inhibitory Concentration of AMPs in MH Medium Against E. coli ATCC 25922 Minimal”

For the compound `CC(C)C[C@H](NC(=O)[C@H](Cc1c[nH]c2ccccc12)NC(=O)[C@H](CCCCN)NC(=O)[C@H](CC(C)C)NC(=O)[C@H](Cc1c[nH]c2ccccc12)NC(=O)[C@H](CCCCN)NC(=O)[C@H](CC(C)C)NC(=O)[C@H](Cc1c[nH]c2ccccc12)NC(=O)[C@H](CCCCN)NC(=O)[C@H](CCCCN)NC(=O)[C@H](CCCCN)NC(=O)[C@@H](N)CCCCN)C(=O)N[C@@H](CCCCN)C(=O)O` [SEQ ID NO. 12, KKKKWLKWLKWLK] (H-KKKKWLKWLKWLK-OH), the “Antimicrobial activity (MIC) Experimental values” in the series with E. coli ATCC 25922 (ATCC 25922) is 1.56 µg/mL. Further, the “MIC in MH medium” value in the series on E. coli ATCC 25922 (ATCC 25922, 16 h) worked out at 1.56 µg/mL (≈ 0.86 µM). The “hemolytic activity on human erythrocytes” value with human red blood cells is on record as “lower hemolytic activity”. In addition, in series [1], the “MIC in LYM medium, NaCl 50” value was determined as 1.56 µg/mL (≈ 0.86 µM); the “MIC in LYM medium, NaCl 100” value amounted to 3.13 µg/mL (≈ 1.73 µM); the “MIC in LYM medium, NaCl 200” value is 3.13 µg/mL (≈ 1.73 µM); the “MIC in LYM medium, NaCl 300” value was 3.13 µg/mL (≈ 1.73 µM). Further, the “MIC in LYM medium, control” value in series [1] stood at 1.56 µg/mL (≈ 0.86 µM).
